Here are results for two compounds from paper PMC9176655, “Nebulized fusion inhibitory peptide protects cynomolgus macaques from measles virus infection” (Research Square, 2022).

For data set [1] the following is noted: cynomolgus monkey, in vivo.
Experimental: Following European recommendations, 2 five-year-old healthy female cynomolgus macaques, 3–4 kg, were housed under conventional conditions in the animal facility. […] Animals were acclimatized to laboratory conditions and trained to breathe an aerosol with a facemask spontaneously. Aerosol generated from 3 ml of 0.9% NaCl mixed with 74 MBq of DTPA radiolabeled with technetium 99m (^99mTc-DTPA) was administered through a facemask connected to the prototype mesh nebulizers, as used in MeV infection experiments (Fig. 2a). Deposition of aerosol was extrapolated based on the ^99mTc-DTPA signal measured at the end of the nebulization using a gamma camera (Orbiter 75 Ecam, Siemens healthcare, Erlangen, Germany)[68]. The nebulizer charge was measured by counting the radioactivity in the syringe (that contained ^99mTc-DTPA) before and after loading the nebulizers. Immediately after aerosol delivery, the animals were imaged using the gamma camera. The post-anterior static scintigraphy acquisition was performed for 120s. The amount of ^99mTc-DTPA deposited into airways and stomach and remaining in the nebulizer was determined from the digitalized images taking into account the tissue attenuation coefficients, previously determined by perfusion scintigraphy (intravenous injection of ^99mTc-macroagregates of albumin). […]
Data set [2] is described as follows: Laser diffraction and nebulizer performance of aerosol from prototype mesh nebulizer. In kind it is physicochemical. The following applies: 3 ml of 4 mg/ml, mean + SD of four devices. How it is done:
The aerodynamic performances of the aerosols generated by the prototype mesh nebulizer were determined by laser diffraction using a Spraytec™ instrument (Malvern Instruments Ltd., Malvern, UK) and the Spraytec inhalation cell (Malvern Instruments Ltd., Malvern, UK) connected to an aspiration carried out by a vacuum pump set to 30–50L/min [69]. The prototype mesh nebulizers (n=4) were loaded with 3 ml of either NaCl 0.9% or the HCR4 peptide (4 mg/ml, dissolved as described above) and then connected to the inhalation cell. Nebulization duration was notified at the end of the complete aerosolization of the loaded 3 ml. Diffraction data and volume distribution were automatically registered by the Spraytec software.
The output of nebulizer was determined by the difference between the weight of the nebulizer before and after nebulization and was expressed in percentage of the loaded volume. The output rate of each nebulizer (in ml/min) was then determined as the ratio between the output and the nebulization duration. At least, the residual volume corresponding to the volume of liquid remaining in the reservoir at the end of the nebulization was also determined by weighting the nebulizer before loading it and after nebulization.
25 Table S1. […]
28 1 VMD for Volume Median Diameter, presents the mean size of generated aerosols, measured by […]

The subject of data set [3] is MeV. Kind of data set: Plaque reduction assay on Vero-hSLAM cells. The note with it: prototype mesh nebulizer. On the technique in general: In a plaque reduction assay, fewer plaques than in the control indicate reduced infectivity or spread.
Data set [4] in a line: Solubility of peptide for nebulization. In kind it is physicochemical. The note with it: dissolved in filtered Milli-Q water to 4 mg/ml, pH adjusted to 7, HEPES buffer.
In data set [5] the test system is MeV IC323-eGFP. Nature of the data set: Serial viral passaging in presence of peptide, sequencing for escape variants. The note with it: 1μM peptide added after infection, 8 serial passages on Vero SLAM cells, 100 PFU per passage, sequencing of viral RNA.
Data set [6] relates to MeV. The note with it: cell culture and organotypic brain cultures; cited from earlier work.
For data set [7], the system named is MeV. The following applies: intranasal administration, cited from earlier work. The text has this: MeV uses several receptors to infect target cells. […] Infection is initiat ...
For data set [8], the system named is MeV IC323-eGFP. Kind of data set: Nebulized peptide in MeV-infected cynomolgus macaques. The note with it: absence of fluorescent rash, PBMC infection, viremia, viral shedding, MeV-specific immune response.
Text: To assess antiviral efficacy of nebulized HRC4 peptide in NHPs, groups of 3 animals were infected with 10^4 PFU MeV IC323-eGFP by intra-tracheal inoculation, and either mock-treated with nebulized saline solution (C1, C2, and C3) or treated with nebulized HRC4 peptide (P1, P2, and P3) twenty-four and six hours before infection and twenty-four hours after infection (Fig. 6a). The NHPs were housed in cages accommodating two animals per cage for ethical reasons, so that one cage contained one peptide-treated and one saline-nebulized macaque.
(a) Experimental design: cynomolgus monkeys (3 animals/group) were either nebulized with 3 ml of NaCl 0.9% (control group, C) or with 3 ml HRC4 peptide 4 mg/ml (experimental group, P), 24 h and 6 h before and 24 h after intra-tracheal infection with 10^4 PFU MeV IC323 eGFP. Blood samples were taken every 3 days for the first 16 days and fluorescence of the skin and mucosa tested at that time points. (b) Macroscopic manifestation of MeV infection, typical fluorescent rash observed on tongue, skin (back and chin) and palate (marked with white arrows), monitored under anesthesia using a blue light with orange filter. […] (d) Analysis of viremia by quantification of the percentage of GFP^+ peripheral blood mononuclear cells (PBMC) in the blood by flow cytometry and MeV-specific RNA in PBMCs and in throat swabs by RT-qPCR, during the course of infection. […]

For the compound `O=C([O-])CN(CCN(CC(=O)[O-])CC(=O)[O-])CCN(CC(=O)[O-])CC(=O)[O-].[99Tc+4]` [99mTC-DTPA, DTPA radiolabeled with technetium 99m], the “Deposition in macaque, Lungs” value in data set [1] is reported as 11.4 +/- 3.1%.

Take `CC[C@H](C)[C@H](NC(=O)[C@H](C)NC(=O)[C@H](CC(N)=O)NC(=O)CNC(=O)[C@H](CC(C)C)NC(=O)[C@H](CC(N)=O)NC(=O)[C@@H](NC(=O)CNC(=O)[C@@H](NC(=O)[C@H](CC(=O)O)NC(=O)[C@H](CC(C)C)NC(=O)[C@H](CCCNC(=N)N)NC(=O)[C@H](CCC(=O)O)NC(=O)[C@H](CC(C)C)NC(=O)[C@H](CO)NC(=O)[C@@H](NC(=O)[C@@H]1CCCN1C(=O)[C@@H]1CCCN1)[C@@H](C)CC)C(C)C)[C@@H](C)O)C(=O)N[C@@H](C)C(=O)N[C@@H](CCCCN)C(=O)N[C@@H](CC(C)C)C(=O)N[C@@H](CCC(=O)O)C(=O)N[C@@H](CC(=O)O)C(=O)N[C@@H](C)C(=O)N[C@@H](CCCCN)C(=O)N[C@@H](CCC(=O)O)C(=O)N[C@@H](CC(C)C)C(=O)N[C@@H](CC(C)C)C(=O)N[C@@H](CCC(=O)O)C(=O)N[C@@H](CO)C(=O)N[C@@H](CO)C(=O)N[C@@H](CC(=O)O)C(=O)N[C@@H](CCC(N)=O)C(=O)N[C@H](C(=O)N[C@@H](CC(C)C)C(=O)N[C@@H](CCCNC(=N)N)C(=O)NCC(=O)N[C@@H](CO)C(=O)NCC(=O)N[C@@H](CO)C(=O)NCC(=O)N[C@@H](CSC1CC(=O)N(CCCC(=O)NCCOCCOCCOCCOCCC(=O)NCCN(CCNC(=O)CCOCCOCCOCCOCCNC(=O)CCCN2C(=O)CC(SC[C@H](NC(=O)CNC(=O)[C@H](CO)NC(=O)CNC(=O)[C@H](CO)NC(=O)CNC(=O)[C@H](CCCNC(=N)N)NC(=O)[C@H](CC(C)C)NC(=O)[C@@H](NC(=O)[C@H](CCC(N)=O)NC(=O)[C@H](CC(=O)O)NC(=O)[C@H](CO)NC(=O)[C@H](CO)NC(=O)[C@H](CCC(=O)O)NC(=O)[C@H](CC(C)C)NC(=O)[C@H](CC(C)C)NC(=O)[C@H](CCC(=O)O)NC(=O)[C@H](CCCCN)NC(=O)[C@H](C)NC(=O)[C@H](CC(=O)O)NC(=O)[C@H](CCC(=O)O)NC(=O)[C@H](CC(C)C)NC(=O)[C@H](CCCCN)NC(=O)[C@H](C)NC(=O)[C@@H](NC(=O)[C@H](C)NC(=O)[C@H](CC(N)=O)NC(=O)CNC(=O)[C@H](CC(C)C)NC(=O)[C@H](CC(N)=O)NC(=O)[C@@H](NC(=O)CNC(=O)[C@@H](NC(=O)[C@H](CC(=O)O)NC(=O)[C@H](CC(C)C)NC(=O)[C@H](CCCNC(=N)N)NC(=O)[C@H](CCC(=O)O)NC(=O)[C@H](CC(C)C)NC(=O)[C@H](CO)NC(=O)[C@@H](NC(=O)[C@@H]3CCCN3C(=O)[C@@H]3CCCN3)[C@@H](C)CC)C(C)C)[C@@H](C)O)[C@@H](C)CC)[C@@H](C)CC)C(=O)O)C2=O)CCO[C@H]2CC[C@@]3(C)C(=CC[C@H]4[C@@H]5CC[C@H]([C@H](C)CCCC(C)C)[C@@]5(C)CC[C@@H]43)C2)C1=O)C(=O)O)[C@@H](C)CC` (stereo partly shown) [HRC4]: the VMD in data set [2] (laser diffraction (Spraytec)) is reported as 4 μm. Further, the “< 5µm” value in data set [2] (percentage of particles smaller than 5 µm) is given as “Approximately 58%”. Moreover, in the data set on MeV [3], the “Antiviral activity after versus before nebulization” value is listed as “did not cause any loss of activity”. The Solubility result in data set [4] is on record as “soluble in water”. For the same compound, the “Mutations in MeV F after 8th passage” value with MeV IC323-eGFP [5] is reported as “no mutations”. Besides, the “Inhibition of the fusion process” value in the data set with MeV [6] is given as “inhibited the fusion process”. For the same compound, the Survival of mice entry in the data set on MeV [7] (humanized transgenic mouse models of lethal measles disease) is recorded as “significant increase in survival of mice”. Also, the “Viral titer in cotton rat lungs” value in the data set on MeV [7] was “reduction of the viral titer in cotton rat lungs”. Also, in the data set on MeV IC323-eGFP [8], the “Development of MeV infection” value is reported as “abrogated the development of MeV infection in two out of three animals”.
